For 9 compounds, IC90 results are on record in patent US20230203043A1, “NOVEL IMIDAZOPYRAZINE DERIVATIVES” (Hoffmann-La Roche Inc., priority 2020, published 2023).

In this test the test system is Acinetobacter baumannii ATCC17961. The test can be described thus: Antimicrobial susceptibility testing: 90% growth inhibitory concentration (IC90) determination in Iso-Sensitest broth, OD600 growth. It is filed as cell-based. To be noted: Acinetobacter baumannii, ATCC17961, 16 h. In outline: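 Each strain, at about 5×10^(5) CFU/ml, was incubated with twofold dilutions of compound at 35±2° C for 16 h, and IC90 was calculated from kinetic optical density measured at 600 nm during logarithmic growth.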

Setting [1] is: strain ATCC 17961, OD600 growth over 16 h, read-out: A. baumannii ATCC 17961 IC90.
Where [2] appears, read: read-out: A. baumannii ATCC 17961 IC90 (uM), strain ATCC 17961, OD600 growth over 16 h.

Structures can show the parent of a compound that is named as a salt. Where two headings read alike, the source gives them in different places.

The IC90 is the concentration at which the effect reaches the 90% level. For `NCCCC(=O)NCCNC(=O)c1ccc(Nc2nccn3c(-c4c[nH]nc4C(F)(F)F)cnc23)cc1Cl` [Example 300, N-[2-(4-aminobutanoylamino)ethyl]-2-chloro-4-[[3-[3-(trifluoromethyl)-1H-pyrazol-4-yl]imidazo[1,2-a]pyrazin-8-yl]amino]benzamide], the concentration for an effect of 90% (IC90) under setting [1] worked out at 0.905 µM.

On to `C[C@@]1(O)CN[C@H](C(=O)N2CCN(C(=O)c3ccc(Nc4nccn5c(-c6c[nH]nc6C(F)(F)F)cnc45)cc3Cl)CC2)C1` [Example 443, [2-chloro-4-[[3-[3-(trifluoromethyl)-1H-pyrazol-4-yl]imidazo[1,2-a]pyrazin-8-yl]amino]phenyl]-[4-[(2S,4S)-4-hydroxy-4-methylpyrrolidine-2-carbonyl]piperazin-1-yl]methanone formate], for which, under setting [2], the IC90 was 0.81 µM.

For the compound `N#CCn1cc(-c2cnc3c(Nc4ccc(C(=O)N5CCN(C(=O)[C@H]6C[C@H](N)C6)CC5)c(Cl)c4)nccn23)c(C(F)(F)F)n1` [Example 12, 2-[4-[8-[4-[4-(3-aminocyclobutanecarbonyl)piperazine-1-carbonyl]-3-chloroanilino]imidazo[1,2-a]pyrazin-3-yl]-3-(trifluoromethyl)pyrazol-1-yl]acetonitrile formate], under setting [2], the IC90 came to 0.176 µM.

As to `N#CCn1cc(-c2cnc3c(Nc4ccc(C(=O)N5CCN(CC(=O)N[C@H]6CCNC6)CC5)c(Cl)c4)nccn23)c(C(F)(F)F)n1` [Example 605, (S)-2-(4-(2-chloro-4-((3-(1-(cyanomethyl)-3-(trifluoromethyl)-1H-pyrazol-4-yl)imidazo[1,2-a]pyrazin-8-yl)amino)benzoyl)piperazin-1-yl)-N-(pyrrolidin-3-yl) acetamide formate], the 90% effect concentration (IC90) under setting [1] is 0.496 µM.

On to `CCc1cc(Nc2nccn3c(-c4cn(CC#N)nc4C(F)(F)F)cnc23)ccc1C(=O)N[C@H](C)C(=O)NC1CC(N)C1` (stereo partly drawn) [Example 790, N-[(1R)-2-[(3-aminocyclobutyl)amino]-1-methyl-2-oxo-ethyl]-4-[[3-[1-(cyanomethyl)-3-(trifluoromethyl)pyrazol-4-yl]imidazo[1,2-a]pyrazin-8-yl]amino]-2-ethyl-benzamide formate], for which the IC90 under setting [2] came out at 1.64 µM.

For `N#CCn1cc(-c2cnc3c(Nc4ccc(C(=O)N[C@H]5[C@@H]6CN(C(=O)N[C@@H]7CNC[C@H]7O)C[C@@H]65)c(Cl)c4)nccn23)c(C(F)(F)F)n1` [Example 825, (1s,5r)-6-[[2-chloro-4-[[3-[1-(cyanomethyl)-3-(trifluoromethyl)pyrazol-4-yl]imidazo[1,2-α]pyrazin-8-yl]amino]benzoyl]amino]-N-[(3R,4R)-4 hydroxypyrrolidin-3-yl]-3-azabicyclo[3.1.0]hexane-3-carboxamide formic acid salt], the 90% effect concentration (IC90) under setting [1] came to 0.11 µM.

As to `CCc1cc(Nc2nccn3c(-c4cn(CC(F)F)nc4C(F)(F)F)cnc23)ccc1C(=O)NCCCNC(=O)[C@@H]1CCCN1` [Example 627, (S)-N-(3-(4-((3-(1-(2,2-difluoroethyl)-3-(trifluoromethyl)-1H-pyrazol-4-yl)imidazo[1,2-a]pyrazin-8-yl)amino)-2-ethylbenzamido)propyl) pyrrolidine-2-carboxamide], the IC90 under setting [1] came out at 0.19 µM.

Turning to `Cc1cc(Nc2nccn3c(-c4cn(CCF)nc4C(F)(F)F)cnc23)cc(F)c1C(=O)N1CCN(C(=O)[C@H]2CC[C@H](O)N2)CC1` [Example 714, (4-(2-fluoro-4-((3-(1-(2-fluoroethyl)-3-(trifluoromethyl)-1H-pyrazol-4-yl)imidazo[1,2-a]pyrazin-8-yl)amino)-6-methylbenzoyl)piperazin-1-yl)((2R,5S)-5-hydroxypyrrolidin-2-yl)methanone], the 90% effect concentration (IC90) under setting [1] is 0.422 µM.

`C[C@H]1CNCCN1C(=O)c1ccc(Nc2nccn3c(-c4c[nH]nc4C(F)(F)F)cnc23)cc1Cl` [Example 325, [2-chloro-4-[[3-[3-(trifluoromethyl)-1H-pyrazol-4-yl]imidazo[1,2-a]pyrazin-8-yl]amino]phenyl]-[(2S)-2-methylpiperazin-1-yl]methanone]: the 90% effect concentration (IC90) under setting [1] came out at 2.02 µM.
